Laboratory results published in PubChem BioAssay AID248 (DTP/NCI, 2004).
“And” between values parts separate entries of the source, which are not always exact repeats. Equal entries are not always repeated. Toxic doses and inconclusive results are not listed.

Tested on: L1210 leukemia ip in BDF1 mice, survival T/C
Experiment: NCI In Vivo Anticancer Drug Screen. Data for tumor model L1210 Leukemia (intraperitoneal) in B6D2F1 (BDF1) mice
Conditions: endpoint: mean survival time, higher = longer survival
Outline: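 Antitumor effect is assessed in tumor-bearing animals. Survival in the compound arm is compared with a vehicle-dosed control arm and expressed as their quotient.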

[1] = dose: 100.0 mg/kg/injection, schedule: Q01DX001 (ip), vehicle: saline
[2] = dose: 100.0 mg/kg/injection, schedule: Q01DX009 (ip), vehicle: saline
[3] = dose: 200.0 mg/kg/injection, schedule: Q01DX001 (ip), vehicle: saline
[4] = dose: 200.0 mg/kg/injection, schedule: Q01DX009 (ip), vehicle: saline
[5] = dose: 400.0 mg/kg/injection, schedule: Q01DX001 (ip), vehicle: saline
[6] = dose: 400.0 mg/kg/injection, schedule: Q01DX009 (ip), vehicle: saline
[7] = dose: 100.0 mg/kg/injection, schedule: Q04DX003 (ip), vehicle: saline
[8] = dose: 200.0 mg/kg/injection, schedule: Q04DX003 (ip), vehicle: saline
[9] = dose: 400.0 mg/kg/injection, schedule: Q04DX003 (ip), vehicle: saline
[10] = dose: 100.0 mg/kg/injection, schedule: Q01DX009 (ip), vehicle: Klucel (hydroxypropylcellulose) (HPC)
[11] = dose: 100.0 mg/kg/injection, schedule: Q04DX003 (ip), vehicle: Klucel (hydroxypropylcellulose) (HPC)
[12] = dose: 200.0 mg/kg/injection, schedule: Q04DX003 (ip), vehicle: Klucel (hydroxypropylcellulose) (HPC)
[13] = dose: 400.0 mg/kg/injection, schedule: Q01DX009 (ip), vehicle: Klucel (hydroxypropylcellulose) (HPC)
[14] = dose: 400.0 mg/kg/injection, schedule: Q04DX003 (ip), vehicle: Klucel (hydroxypropylcellulose) (HPC)
[15] = dose: 50.0 mg/kg/injection, schedule: Q01DX001 (ip), vehicle: carboxymethylcellulose (CMC)
[16] = dose: 100.0 mg/kg/injection, schedule: Q01DX001 (ip), vehicle: carboxymethylcellulose (CMC)
[17] = dose: 200.0 mg/kg/injection, schedule: Q01DX001 (ip), vehicle: carboxymethylcellulose (CMC)
[18] = dose: 400.0 mg/kg/injection, schedule: Q01DX001 (ip), vehicle: carboxymethylcellulose (CMC)
[19] = dose: 100.0 mg/kg/injection, schedule: Q04DX002 (ip), vehicle: Klucel (hydroxypropylcellulose) (HPC)
[20] = dose: 200.0 mg/kg/injection, schedule: Q04DX002 (ip), vehicle: Klucel (hydroxypropylcellulose) (HPC)
[21] = dose: 400.0 mg/kg/injection, schedule: Q04DX002 (ip), vehicle: Klucel (hydroxypropylcellulose) (HPC)

Compound: O=S(=O)(O)c1ccncc1
- T/C [1]: 96 % of control
- T/C [2]: 96 % of control
- T/C [3]: 91 % of control
- T/C [4]: 87 % of control
- T/C [5]: 88 % of control
- T/C [6]: 96 % of control

Compound: Nc1ccc(NC=O)c(Cl)c1
- T/C [7]: 102 % of control
- T/C [8]: 108 % of control
- T/C [9]: 102 % of control

Compound: O=S(=O)(c1ccccc1)c1ccc(O)cc1
- T/C (dose: 50.0 mg/kg/injection, schedule: Q01DX001 (ip), vehicle: saline): 95 % of control
- T/C [1]: 89 % of control
- T/C [3]: 108 % of control
- T/C [5]: 101 % of control

Compound: N#Cc1cc[n+](Cc2ccc([N+](=O)[O-])cc2)cc1
- T/C [1]: 104 % of control
- T/C [3]: 98 % of control

Compound: C#CCCCCCCCCC(=O)NCC
- T/C [10]: 100 % of control
- T/C [11]: 95 % of control
- T/C [12]: 93 % of control
- T/C [13]: 104 % of control
- T/C [14]: 108 % of control

Compound: COC1c2ccccc2CC1(C)C (configuration not stated)
- T/C (dose: 100.0 mg/kg/injection, schedule: Q04DX002 (ip), vehicle: saline): 118 % of control
- T/C (dose: 200.0 mg/kg/injection, schedule: Q04DX002 (ip), vehicle: saline): 105 % of control
- T/C (dose: 400.0 mg/kg/injection, schedule: Q04DX002 (ip), vehicle: saline): 94 % of control

Compound: O=c1c(N(CCO)CCO)cn(C(c2ccccc2)(c2ccccc2)c2ccccc2)c(=O)n1C(c1ccccc1)(c1ccccc1)c1ccccc1
- T/C [15]: 104 % of control
- T/C [16]: 96 % of control
- T/C [17]: 100 % of control
- T/C [18]: 96 % of control

Compound: Cc1ccc(N=C=Nc2ccc(C)cc2)cc1
- T/C (dose: 25.0 mg/kg/injection, schedule: Q04DX003 (ip), vehicle: Klucel (hydroxypropylcellulose) (HPC)): 105 % of control
- T/C (dose: 50.0 mg/kg/injection, schedule: Q04DX003 (ip), vehicle: Klucel (hydroxypropylcellulose) (HPC)): 97 % of control
- T/C [11]: 90 % of control

Compound: OCC1(O)CCC1
- T/C [2]: 102 % of control
- T/C [7]: 94 % of control
- T/C [4]: 99 % of control
- T/C [8]: 103 % of control
- T/C [6]: 107 % of control
- T/C [9]: 96 % of control

Compound: N#C/C(=C\c1cccc([N+](=O)[O-])c1)c1ccccc1
- T/C (dose: 100.0 mg/kg/injection, schedule: Q01DX001 (ip), vehicle: Klucel (hydroxypropylcellulose) (HPC)): 97 % of control
- T/C (dose: 200.0 mg/kg/injection, schedule: Q01DX001 (ip), vehicle: Klucel (hydroxypropylcellulose) (HPC)): 101 % of control
- T/C (dose: 400.0 mg/kg/injection, schedule: Q01DX001 (ip), vehicle: Klucel (hydroxypropylcellulose) (HPC)): 94 % of control

Compound: COc1ccc(NC(=O)N(CCCl)N=O)cc1
- T/C (dose: 0.12 mg/kg/injection, schedule: Q01DX Z (ip), vehicle: carboxymethylcellulose (CMC)): 112 % of control
- T/C (dose: 1.25 mg/kg/injection, schedule: Q01DX Z (ip), vehicle: carboxymethylcellulose (CMC)): 123 % of control
- T/C (dose: 4.4 mg/kg/injection, schedule: Q01DX015 (ip), vehicle: saline): 200 % of control
- T/C (dose: 4.4 mg/kg/injection, schedule: Q01DX Z (ip), vehicle: carboxymethylcellulose (CMC)): 192 % of control
- T/C (dose: 5.0 mg/kg/injection, schedule: Q01DX Z (ip), vehicle: carboxymethylcellulose (CMC)): 160 % of control
- T/C (dose: 6.6 mg/kg/injection, schedule: Q01DX015 (ip), vehicle: saline): 224 % of control
- T/C (dose: 6.6 mg/kg/injection, schedule: Q01DX Z (ip), vehicle: carboxymethylcellulose (CMC)): 222 % of control
- T/C (dose: 9.9 mg/kg/injection, schedule: Q01DX001 (ip), vehicle: carboxymethylcellulose (CMC)): 160 % of control
- T/C (dose: 10.0 mg/kg/injection, schedule: Q01DX015 (ip), vehicle: saline): 196 % of control
- T/C (dose: 10.0 mg/kg/injection, schedule: Q01DX Z (ip), vehicle: carboxymethylcellulose (CMC)): 187 % of control
- T/C (dose: 15.0 mg/kg/injection, schedule: Q01DX015 (ip), vehicle: saline): 195 % of control
- T/C (dose: 15.0 mg/kg/injection, schedule: Q01DX Z (ip), vehicle: carboxymethylcellulose (CMC)): 120 % of control
- T/C (dose: 19.8 mg/kg/injection, schedule: Q01DX001 (ip), vehicle: carboxymethylcellulose (CMC)): 166 % of control
- T/C (dose: 20.0 mg/kg/injection, schedule: Q01DX Z (ip), vehicle: carboxymethylcellulose (CMC)): 93 % of control
- T/C (dose: 39.6 mg/kg/injection, schedule: Q01DX001 (ip), vehicle: carboxymethylcellulose (CMC)): 206 % of control
- T/C (dose: 60.0 mg/kg/injection, schedule: Q01DX001 (ip), vehicle: saline): 158 % of control
- T/C (dose: 79.2 mg/kg/injection, schedule: Q01DX001 (ip), vehicle: carboxymethylcellulose (CMC)): 105 % of control
- T/C (dose: 120.0 mg/kg/injection, schedule: Q01DX001 (ip), vehicle: saline): 111 % of control
- T/C (dose: 240.0 mg/kg/injection, schedule: Q01DX001 (ip), vehicle: saline): 156 % of control

Compound: CCOC(=O)c1cc([N+](=O)[O-])c(C)s1
- T/C (dose: 100.0 mg/kg/injection, schedule: Q01DX009 (sc), vehicle: olive oil, sesame oil, peanut oil): 104 % of control
- T/C (dose: 100.0 mg/kg/injection, schedule: Q04DX003 (sc), vehicle: olive oil, sesame oil, peanut oil): 101 % of control
- T/C (dose: 200.0 mg/kg/injection, schedule: Q01DX009 (sc), vehicle: olive oil, sesame oil, peanut oil): 95 % of control
- T/C (dose: 200.0 mg/kg/injection, schedule: Q04DX003 (sc), vehicle: olive oil, sesame oil, peanut oil): 107 % of control
- T/C (dose: 400.0 mg/kg/injection, schedule: Q01DX009 (sc), vehicle: olive oil, sesame oil, peanut oil): 90 % of control
- T/C (dose: 400.0 mg/kg/injection, schedule: Q04DX003 (sc), vehicle: olive oil, sesame oil, peanut oil): 106 % of control

Compound: CCCCCC(/C=N\Nc1nnc(N/N=C\C(=C\c2ccccc2)CCCCC)c2ccccc12)=C/c1ccccc1
- T/C [15]: 102 % of control
- T/C (dose: 88.0 mg/kg/injection, schedule: Q01DX001 (ip), vehicle: carboxymethylcellulose (CMC)): 98 % of control
- T/C [16]: 108 % of control
- T/C (dose: 133.0 mg/kg/injection, schedule: Q01DX001 (ip), vehicle: carboxymethylcellulose (CMC)): 101 % of control
- T/C [17]: 104 % of control and 114 % of control
- T/C (dose: 300.0 mg/kg/injection, schedule: Q01DX001 (ip), vehicle: carboxymethylcellulose (CMC)): 102 % of control and 104 % of control

Compound: CC1(C)CC2C(=O)c3ccccc3NC2c2ccccc21 (configuration not stated)
- T/C [15]: 96 % of control
- T/C [16]: 102 % of control
- T/C (dose: 100.0 mg/kg/injection, schedule: Q04DX003 (ip), vehicle: acetone): 91 % of control
- T/C [17]: 98 % of control
- T/C (dose: 200.0 mg/kg/injection, schedule: Q04DX003 (ip), vehicle: acetone): 86 % of control
- T/C [18]: 98 % of control
- T/C (dose: 400.0 mg/kg/injection, schedule: Q04DX003 (ip), vehicle: acetone): 93 % of control

Compound: Cc1ccc([N+](=O)[O-])cc1NC(=O)Nc1cccc(Cl)c1Cl
- T/C [19]: 86 % of control
- T/C [20]: 96 % of control
- T/C [21]: 90 % of control

Compound: CC(=O)Nc1ccc2c(ccc3ccc4ccccc4c32)c1
- T/C [19]: 102 % of control
- T/C [20]: 105 % of control
- T/C [21]: 105 % of control

Compound: O=[As](O)(c1cccc(Cl)c1)C1CCCCC1O (configuration not stated)
- T/C (dose: 25.0 mg/kg/injection, schedule: Q04DX003 (ip), vehicle: saline with Tween-80): 91 % of control
- T/C (dose: 50.0 mg/kg/injection, schedule: Q04DX003 (ip), vehicle: saline with Tween-80): 89 % of control

Compound: Cc1ccc(NC(=O)OCCSc2ccc(Cl)cc2)c([N+](=O)[O-])c1
- T/C [19]: 99 % of control
- T/C [20]: 99 % of control
- T/C [21]: 89 % of control

Compound: CCOC(=O)c1nc[nH]c1C
- T/C [10]: 103 % of control
- T/C [19]: 98 % of control and 101 % of control
- T/C [11]: 103 % of control
- T/C (dose: 200.0 mg/kg/injection, schedule: Q01DX009 (ip), vehicle: Klucel (hydroxypropylcellulose) (HPC)): 100 % of control and 120 % of control
- T/C [20]: 100 % of control and 103 % of control
- T/C [12]: 103 % of control
- T/C [13]: 103 % of control and 119 % of control
- T/C [21]: 103 % of control
- T/C [14]: 98 % of control
